# Experimental data published in ChEMBL document CHEMBL5154944, “Discovery of Aryloxyphenyl-Heptapeptide Hybrids as Potent and Selective Matrix Metalloproteinase-2 Inhibitors for the Treatment of Idiopathic Pulmonary Fibrosis” (J Med Chem, 2022).
# Active and inactive are the calls of the source. The rule behind the calls is not given here. Non-standard residues stand in square brackets, D forms with d. Residues, ends and D or L forms follow the SMILES beside them. *: point of attachment. Benzoyl(4-OPh(4-CONH2)) = NC(=O)c1ccc(Oc2ccc(C(=O)*)cc2)cc1; NMeE = CN[C@@H](CCC(=O)O)C(=O)O; β3hP = O=C(O)C[C@@H]1CCCN1; Dab = NCC[C@H](N)C(=O)O; Ava = NCCCCC(=O)O
# Columns and labels:
# [1] = Solubility of the compound in phosphate buffer at pH 9 by HPLC analysis; type: physicochemical
# [2] = Solubility of the compound in acetate buffer at pH 4.0 by HPLC analysis; type: physicochemical
# [3] = Solubility of the compound in phosphate buffer at pH 7.4 by HPLC analysis; type: physicochemical
# [4] = Clearance in fasted Sprague-Dawley rat at 1 mg/kg, iv by LC-MS/MS analysis; type: ADME, organism-based; settings: in vivo
# [5] = Metabolic stability in rat hepatocytes assessed as parent compound remaining incubated for 1 hr by LC-MS/MS; type: ADME, cell-based, Hepatocyte; settings: read-out: Stability
# [6] = Volume of distribution at steady state in fasted Sprague-Dawley rat at 1 mg/kg, iv by LC-MS/MS analysis; type: ADME, organism-based; settings: in vivo, read-out: Vdss
# [7] = Half life in fasted Sprague-Dawley rat at 1 mg/kg, iv by LC-MS/MS analysis; type: ADME, organism-based; settings: in vivo
# [8] = Chemical stability of the compound in acetate buffer at pH 4.0 assessed as residual rate incubated for 2 weeks by HPLC analysis; type: physicochemical; settings: read-out: Stability
# Interstitial collagenase = biological target: T1, Interstitial collagenase (Homo sapiens, UniProt P03956); assay: Inhibition of recombinant human MMP1 using MOCAc-Lys-Pro-Leu-Gly-Leu-A2pr(Dnp)-Ala-Arg-NH2 as substrate preincubated for 15 mins followed by substrate addition by fluroscence based assay
# T1 sequence (P03956 whole entry): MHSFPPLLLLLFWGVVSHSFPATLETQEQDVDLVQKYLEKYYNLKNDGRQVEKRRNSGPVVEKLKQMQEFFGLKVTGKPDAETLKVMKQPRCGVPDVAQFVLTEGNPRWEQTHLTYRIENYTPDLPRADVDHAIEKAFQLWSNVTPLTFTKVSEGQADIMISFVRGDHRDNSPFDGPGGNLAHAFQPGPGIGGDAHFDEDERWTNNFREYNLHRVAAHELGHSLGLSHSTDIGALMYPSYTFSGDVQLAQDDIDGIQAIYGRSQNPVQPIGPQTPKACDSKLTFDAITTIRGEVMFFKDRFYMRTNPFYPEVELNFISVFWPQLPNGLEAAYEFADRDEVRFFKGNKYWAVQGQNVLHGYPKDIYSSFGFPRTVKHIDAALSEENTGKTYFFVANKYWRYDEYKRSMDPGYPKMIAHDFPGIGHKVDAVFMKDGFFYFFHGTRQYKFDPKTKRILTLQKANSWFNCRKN
# Stromelysin-1 = Stromelysin-1 (Homo sapiens, UniProt P08254); assay: Inhibition of recombinant human MMP3 using MOCAc-Lys-Pro-Leu-Gly-Leu-A2pr(Dnp)-[…] as substrate preincubated for 15 mins followed by substrate addition by fluroscence based assay
# Sequence of Stromelysin-1 (P08254 whole entry): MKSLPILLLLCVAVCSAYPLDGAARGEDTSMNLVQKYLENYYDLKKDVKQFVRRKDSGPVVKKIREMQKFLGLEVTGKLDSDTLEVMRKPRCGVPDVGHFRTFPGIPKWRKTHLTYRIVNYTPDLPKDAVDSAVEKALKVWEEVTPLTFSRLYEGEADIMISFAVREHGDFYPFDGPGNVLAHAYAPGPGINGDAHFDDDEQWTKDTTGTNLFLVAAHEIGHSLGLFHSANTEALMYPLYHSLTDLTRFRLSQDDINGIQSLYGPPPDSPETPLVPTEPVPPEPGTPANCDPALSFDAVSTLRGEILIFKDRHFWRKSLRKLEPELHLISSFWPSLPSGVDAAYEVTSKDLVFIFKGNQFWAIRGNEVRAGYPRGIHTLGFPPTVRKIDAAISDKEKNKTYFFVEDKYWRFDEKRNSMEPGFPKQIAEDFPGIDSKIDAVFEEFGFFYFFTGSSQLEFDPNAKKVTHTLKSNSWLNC
# Matrilysin = biological target: T2, Matrilysin (Homo sapiens, UniProt P09237)
# T2 sequence (P09237 whole entry): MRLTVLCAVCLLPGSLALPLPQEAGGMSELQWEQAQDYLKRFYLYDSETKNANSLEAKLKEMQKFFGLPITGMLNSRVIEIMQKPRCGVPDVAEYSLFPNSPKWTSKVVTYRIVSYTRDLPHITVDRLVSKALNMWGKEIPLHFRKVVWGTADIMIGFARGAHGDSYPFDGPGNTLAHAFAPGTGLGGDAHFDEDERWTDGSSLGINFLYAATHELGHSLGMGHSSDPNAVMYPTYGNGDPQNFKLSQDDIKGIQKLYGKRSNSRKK
# Neutrophil collagenase = Neutrophil collagenase (Homo sapiens, UniProt P22894)
# Sequence of Neutrophil collagenase (P22894 whole entry): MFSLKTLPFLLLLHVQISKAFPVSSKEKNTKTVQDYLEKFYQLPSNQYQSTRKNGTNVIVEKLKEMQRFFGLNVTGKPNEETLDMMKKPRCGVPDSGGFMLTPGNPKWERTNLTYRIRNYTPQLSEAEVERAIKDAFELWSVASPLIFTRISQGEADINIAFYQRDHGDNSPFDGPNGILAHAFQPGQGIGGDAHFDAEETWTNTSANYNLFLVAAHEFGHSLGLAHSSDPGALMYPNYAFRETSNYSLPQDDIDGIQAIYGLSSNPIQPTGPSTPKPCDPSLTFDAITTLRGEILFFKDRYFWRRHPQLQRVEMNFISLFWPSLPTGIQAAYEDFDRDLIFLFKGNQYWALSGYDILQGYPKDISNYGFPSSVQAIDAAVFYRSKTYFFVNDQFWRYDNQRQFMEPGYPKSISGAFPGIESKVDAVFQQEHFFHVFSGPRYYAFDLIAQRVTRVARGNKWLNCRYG
# [9] = biological target: Matrix metalloproteinase-9 (Homo sapiens, UniProt P14780)
# Sequence of Matrix metalloproteinase-9 (P14780 whole entry): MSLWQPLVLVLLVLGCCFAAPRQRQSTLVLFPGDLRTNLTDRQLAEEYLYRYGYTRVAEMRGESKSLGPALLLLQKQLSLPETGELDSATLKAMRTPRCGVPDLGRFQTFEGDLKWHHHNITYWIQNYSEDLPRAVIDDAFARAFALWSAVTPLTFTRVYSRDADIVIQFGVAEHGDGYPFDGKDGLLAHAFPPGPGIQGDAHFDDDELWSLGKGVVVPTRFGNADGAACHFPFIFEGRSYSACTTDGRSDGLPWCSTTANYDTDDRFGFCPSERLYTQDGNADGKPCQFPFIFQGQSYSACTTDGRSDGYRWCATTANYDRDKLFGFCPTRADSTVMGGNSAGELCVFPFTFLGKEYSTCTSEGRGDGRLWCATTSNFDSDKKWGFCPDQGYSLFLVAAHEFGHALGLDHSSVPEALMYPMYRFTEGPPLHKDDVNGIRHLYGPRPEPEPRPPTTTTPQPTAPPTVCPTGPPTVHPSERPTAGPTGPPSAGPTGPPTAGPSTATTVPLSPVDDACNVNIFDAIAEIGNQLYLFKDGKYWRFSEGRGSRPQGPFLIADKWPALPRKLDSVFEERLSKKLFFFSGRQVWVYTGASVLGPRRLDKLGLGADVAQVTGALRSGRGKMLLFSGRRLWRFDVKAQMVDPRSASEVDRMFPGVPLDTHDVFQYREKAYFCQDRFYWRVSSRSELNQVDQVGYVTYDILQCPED
# [10] = biological target: Matrix metalloproteinase-14 (Homo sapiens, UniProt P50281); assay: Inhibition of recombinant human MMP14 using MOCAc-Lys-Pro-Leu-Gly-Leu-A2pr(Dnp)-Ala-Arg-NH2 as substrate preincubated for 15 mins followed by substrate addition by fluroscence based assay
# CYP1A2 = CYP1A2 (Homo sapiens, UniProt P05177); assay: Inhibition of CYP1A2 in human liver microsomes at 10 uM using phenacetin as substrate for 5 mins followed by NADPH addition and measured after 10 mins by LC/MS/MS analysis relative to control; type: ADME, Microsome; settings: probe phenacetin, time 15 min
# Sequence of CYP1A2 (P05177 whole entry): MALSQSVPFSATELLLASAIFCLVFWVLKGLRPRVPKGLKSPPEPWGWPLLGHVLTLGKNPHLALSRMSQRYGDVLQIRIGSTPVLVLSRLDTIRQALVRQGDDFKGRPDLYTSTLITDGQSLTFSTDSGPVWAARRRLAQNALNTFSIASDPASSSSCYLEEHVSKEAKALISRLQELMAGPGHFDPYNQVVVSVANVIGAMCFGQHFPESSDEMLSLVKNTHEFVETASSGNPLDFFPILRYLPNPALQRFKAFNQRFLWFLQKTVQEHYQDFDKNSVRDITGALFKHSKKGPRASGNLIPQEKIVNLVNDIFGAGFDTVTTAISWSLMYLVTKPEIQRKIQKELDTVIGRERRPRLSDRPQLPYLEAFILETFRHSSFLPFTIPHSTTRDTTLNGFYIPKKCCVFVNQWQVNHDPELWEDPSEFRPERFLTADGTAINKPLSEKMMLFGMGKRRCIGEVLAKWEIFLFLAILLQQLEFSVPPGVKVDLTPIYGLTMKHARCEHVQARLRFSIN
# CYP2C19 = CYP2C19 (Homo sapiens, UniProt P33261); assay: Inhibition of CYP2C19 in human liver microsomes at 10 uM using mephenytoin as substrate preincubated for 5 mins followed by addition of NADPH measured after 10 mins by LC/MS/MS analysis relative to control; type: ADME, Microsome; settings: probe mephenytoin, time 15 min
# Sequence of CYP2C19 (P33261 whole entry): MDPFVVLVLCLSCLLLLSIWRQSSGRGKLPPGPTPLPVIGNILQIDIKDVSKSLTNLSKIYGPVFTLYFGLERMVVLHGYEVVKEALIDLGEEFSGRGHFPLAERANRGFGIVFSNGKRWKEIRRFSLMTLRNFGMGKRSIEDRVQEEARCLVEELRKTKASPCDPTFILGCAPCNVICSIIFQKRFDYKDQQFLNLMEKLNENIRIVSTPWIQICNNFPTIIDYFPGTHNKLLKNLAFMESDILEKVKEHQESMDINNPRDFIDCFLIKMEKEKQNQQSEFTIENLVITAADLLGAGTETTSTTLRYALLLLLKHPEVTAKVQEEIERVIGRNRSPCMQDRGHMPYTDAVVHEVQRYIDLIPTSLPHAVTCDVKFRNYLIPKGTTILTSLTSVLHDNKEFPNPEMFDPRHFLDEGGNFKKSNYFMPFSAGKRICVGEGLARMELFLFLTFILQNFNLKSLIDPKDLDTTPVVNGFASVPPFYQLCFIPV
# CYP2D6 = CYP2D6 (Homo sapiens, UniProt P10635); assay: Inhibition of CYP2D6 in human liver microsomes at 10 uM using bufuralol as substrate preincubated for 5 mins followed by addition of NADPH measured after 10 mins by LC/MS/MS analysis relative to control; type: ADME, Microsome; settings: probe bufuralol, time 15 min
# Sequence of CYP2D6 (P10635 whole entry): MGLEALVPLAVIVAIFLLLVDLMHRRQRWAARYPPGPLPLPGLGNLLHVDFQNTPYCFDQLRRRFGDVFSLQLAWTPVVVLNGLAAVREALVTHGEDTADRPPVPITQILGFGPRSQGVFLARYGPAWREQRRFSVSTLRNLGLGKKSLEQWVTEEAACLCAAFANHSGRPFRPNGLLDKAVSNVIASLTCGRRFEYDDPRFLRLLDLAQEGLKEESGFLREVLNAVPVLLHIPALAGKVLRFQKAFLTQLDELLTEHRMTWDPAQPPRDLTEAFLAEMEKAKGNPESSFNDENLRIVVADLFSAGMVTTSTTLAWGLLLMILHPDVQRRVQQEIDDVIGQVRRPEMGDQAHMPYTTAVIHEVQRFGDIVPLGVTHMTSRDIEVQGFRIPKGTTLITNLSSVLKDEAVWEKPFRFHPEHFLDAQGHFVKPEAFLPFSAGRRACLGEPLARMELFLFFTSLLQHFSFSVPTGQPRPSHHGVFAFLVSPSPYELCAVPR
# CYP2C9 = CYP2C9 (Homo sapiens, UniProt P11712); assay: Inhibition of CYP2C9 in human liver microsomes at 10 uM using diclofenac as substrate preincubated for 5 mins followed by addition of NADPH measured after 5 mins by LC/MS/MS analysis relative to control; type: ADME, Microsome; settings: probe diclofenac, time 10 min
# CYP3A4 = CYP3A4 (Homo sapiens, UniProt P08684); assay: Inhibition of CYP3A4 in human liver microsomes at 10 uM using midazolam as substrate preincubated for 5 mins followed by addition of NADPH measured after 5 mins by LC/MS/MS analysis relative to control; type: ADME, Microsome; settings: probe midazolam
# Sequence of CYP3A4 (P08684 whole entry): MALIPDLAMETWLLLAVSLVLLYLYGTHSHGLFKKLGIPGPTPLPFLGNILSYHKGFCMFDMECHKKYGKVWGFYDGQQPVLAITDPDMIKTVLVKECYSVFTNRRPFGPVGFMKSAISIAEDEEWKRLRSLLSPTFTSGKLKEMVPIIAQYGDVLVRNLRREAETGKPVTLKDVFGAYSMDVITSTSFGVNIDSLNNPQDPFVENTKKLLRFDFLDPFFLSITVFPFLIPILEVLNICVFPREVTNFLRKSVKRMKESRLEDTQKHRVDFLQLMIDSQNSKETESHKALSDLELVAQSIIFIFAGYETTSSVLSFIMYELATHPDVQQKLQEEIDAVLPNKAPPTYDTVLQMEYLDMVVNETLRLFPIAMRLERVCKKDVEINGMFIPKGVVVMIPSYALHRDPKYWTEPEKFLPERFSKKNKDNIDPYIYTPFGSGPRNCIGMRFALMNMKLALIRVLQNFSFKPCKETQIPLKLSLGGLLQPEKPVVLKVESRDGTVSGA
# [11] = biological target: Voltage-gated inwardly rectifying potassium channel KCNH2 (Homo sapiens, UniProt Q12809); assay: Inhibition of human ERG expressed in CHO cells by Qpatch-clamp method; type: toxicity, cell-based
# Sequence of Voltage-gated inwardly rectifying potassium channel KCNH2 (Q12809 whole entry): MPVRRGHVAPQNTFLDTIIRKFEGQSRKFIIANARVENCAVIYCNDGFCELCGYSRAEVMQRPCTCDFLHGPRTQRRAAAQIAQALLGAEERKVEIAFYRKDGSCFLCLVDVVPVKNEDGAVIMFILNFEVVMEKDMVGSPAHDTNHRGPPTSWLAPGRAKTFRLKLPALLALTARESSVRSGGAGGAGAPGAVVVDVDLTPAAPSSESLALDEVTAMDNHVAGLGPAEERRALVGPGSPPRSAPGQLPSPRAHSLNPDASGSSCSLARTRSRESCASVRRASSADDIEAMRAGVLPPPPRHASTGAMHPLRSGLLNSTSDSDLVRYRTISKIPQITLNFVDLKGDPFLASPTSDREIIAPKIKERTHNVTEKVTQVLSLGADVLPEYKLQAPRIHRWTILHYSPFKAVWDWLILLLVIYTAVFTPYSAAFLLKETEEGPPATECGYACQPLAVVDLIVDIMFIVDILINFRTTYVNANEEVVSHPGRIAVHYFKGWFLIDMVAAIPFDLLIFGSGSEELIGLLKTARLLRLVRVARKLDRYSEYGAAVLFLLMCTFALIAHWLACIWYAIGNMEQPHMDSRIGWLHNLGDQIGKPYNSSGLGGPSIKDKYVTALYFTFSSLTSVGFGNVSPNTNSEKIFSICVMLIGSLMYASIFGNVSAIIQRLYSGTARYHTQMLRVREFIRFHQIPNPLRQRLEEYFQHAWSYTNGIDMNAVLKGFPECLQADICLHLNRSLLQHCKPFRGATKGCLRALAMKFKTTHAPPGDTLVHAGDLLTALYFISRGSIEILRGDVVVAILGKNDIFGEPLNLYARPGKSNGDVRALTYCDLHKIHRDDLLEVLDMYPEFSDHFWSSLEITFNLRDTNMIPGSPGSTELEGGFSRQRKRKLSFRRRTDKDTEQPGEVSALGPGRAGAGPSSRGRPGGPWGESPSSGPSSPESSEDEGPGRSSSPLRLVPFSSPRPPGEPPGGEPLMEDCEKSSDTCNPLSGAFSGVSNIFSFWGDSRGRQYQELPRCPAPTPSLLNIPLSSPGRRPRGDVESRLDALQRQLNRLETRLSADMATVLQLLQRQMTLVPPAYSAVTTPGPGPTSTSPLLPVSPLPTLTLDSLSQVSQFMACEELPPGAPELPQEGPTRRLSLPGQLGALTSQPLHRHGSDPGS
# HepG2 [12] = assay: Cytotoxicity against human HepG2 cells assessed as reduction in cell viability at 10 uM after 48 hrs by CCK8 assay; type: functional
# HepG2 [13] = assay: Cytotoxicity against human HepG2 cells assessed as reduction in cell viability at 50 uM after 48 hrs by CCK8 assay; type: functional
# [14] = Metabolic stability in human hepatocytes assessed as parent compound remaining measured after 1 hr by LC-MS/MS analysis; type: ADME, cell-based, Hepatocyte; settings: read-out: Stability
# [15] = Metabolic stability in human serum assessed as parent compound remaining incubated for 6 hrs by LC-MS/MS analysis; type: ADME, cell-free; settings: read-out: Stability
# [16] = Protein binding in human serum assessed as free fraction at 10 ug/ml incubated for 6 hrs by equilibrium dialysis based LC-MS/MS assay; type: ADME, cell-free; settings: at 10 µg/mL
# [17] = Protein binding in mouse serum assessed as free fraction at 10 ug/ml incubated for 6 hrs by equilibrium dialysis based LC-MS/MS assay; type: ADME, cell-free; settings: at 10 µg/mL
# Mus musculus [18] = assay: Antifibrotic activity in C57BL/6N mouse model of bleomycin-induced idiopathic pulmonary fibrosis assessed as reduction of total collagen content at 0.03 to 1 mg/kg/day, sc via osmotic pumps dosed for 14 days; type: functional, organism-based; settings: dose 0.03-1 mg/kg/day, time 14.0 day
# Mus musculus [19] = assay: Antifibrotic activity in C57BL/6N mouse model of bleomycin-induced idiopathic pulmonary fibrosis assessed as reduction of total collagen content at 0.03 mg/kg/day, sc via osmotic pumps dosed for 14 days; type: functional, organism-based; settings: time 14.0 day
# [20] = Free drug concentration in C57BL/6N mouse plasma at 0.03 mg/kg/day, sc via osmotic pumps dosed for 14 days; type: ADME, organism-based; settings: in vivo, 336 h, time 14 day
# physchem [21] = settings: buffer, pH 7.4
# physchem [22] = settings: phosphate buffer, pH 7.4
# physchem [23] = settings: phosphate buffer, pH 9
compound,measurement,setting,value
CC(C)C[C@H](NC(=O)[C@H](CCN)NC(=O)[C@H](CC(=O)O)NC(=O)[C@H](CCC(=O)O)NC(=O)CCCCNC(=O)c1ccc(Oc2ccc(C(N)=O)cc2)cc1)C(=O)N(C)[C@@H](CCC(=O)O)C(=O)N1CCC[C@H]1CC(N)=O ({Benzoyl(4-OPh(4-CONH2))-Ava}-ED[Dab]L[NMeE][β3hP]-NH2),solubility,[1],> 167 mg/mL
same,solubility,[2],> 18.2 mg/mL
same,solubility,[3],> 24.2 mg/mL
same,clearance,[4],11.7 mL/min/kg
same,"remaining at 1 h, 1 µM",[5],98.2%
same,Vd,[6],0.233 L/kg
same,half-life,[7],14 min
same,remaining at 336 h,[8],88%
same,IC50,Interstitial collagenase,> 10 µM
same,IC50,Stromelysin-1,> 10 µM
same,IC50,Matrilysin,> 10 µM
same,IC50,Neutrophil collagenase,3.72 µM
same,IC50,[9],> 8.51 µM
same,IC50,[10],2.22 µM
same,"inhibition at […], 10 µM",CYP1A2,-4.2%
same,"inhibition at 10 min, 10 µM",CYP2C19,-9.1%
same,"inhibition at 10 min, 10 µM",CYP2D6,-2.5%
same,"inhibition at 5 min, 10 µM",CYP2C9,1.6%
same,"inhibition at 5 min, 10 µM",CYP3A4,-2.4%
same,IC50,[11],> 100 µM
same,Activity,HepG2 [12],1.1%
same,Activity,HepG2 [13],-0.9%
same,remaining at 1 h,[14],101%
same,remaining at 6 h,[15],110%
same,"fraction unbound at 6 h, 10 ug/ml",[16],0.552
same,"fraction unbound at 6 h, 10 ug/ml",[17],0.518
same,Activity,Mus musculus [18],Active
same,Activity,Mus musculus [19],Active
same,Cp(f),[20],0.48 nM
same,logD,physchem [21],-0.21
same,remaining at 336 h,physchem [22],95.1%
same,remaining at 336 h,physchem [23],95.4%
